Consider five compounds from ChEMBL document CHEMBL5257077, “d-chiro-Inositol Derivatives with Multidrug Resistance Reversal Activities from the Fruits of Chisocheton siamensis” (J Nat Prod, 2023).

Molecules are shown by their SMILES.

This experiment can be described thus: Reversal of multidrug resistance in human MCF7-DOX cells measured for 48 hrs by MTT assay. The class given is functional, cell-based. For orientation: Tetrazolium assays rely on reduction of a dye to a coloured formazan, in cell work by metabolically active cells.
`C/C=C(\C)C(=O)O[C@@H]1[C@H](O)[C@@H](OC(=O)/C(C)=C/C)[C@H](OC(=O)/C(C)=C/C)[C@@H](OC(=O)/C(C)=C/C)[C@H]1O`: the half-inhibitory concentration (IC50) came to 6.5 µM.
Consider `COc1cccc2c1C(=O)c1c(O)c3c(c(O)c1C2=O)C[C@@](O)(C(=O)CO)C[C@@H]3O[C@H]1C[C@H](N)[C@H](O)[C@H](C)O1` [DOXORUBICIN], for which the IC50 stood at 22.4 µM.
As for `C/C=C(\C)C(=O)O[C@H]1[C@@H](OC(C)=O)[C@H](OC(C)=O)[C@H](OC(=O)/C(C)=C/C)[C@@H](OC(=O)/C(=C/C)CO)[C@@H]1OC(=O)/C(=C/C)CO`, the IC50 worked out at 3.4 µM.
Turning to `COc1ccc(CCN(C)CCCC(C#N)(c2ccc(OC)c(OC)c2)C(C)C)cc1OC` (stereo not given) [VERAPAMIL], the IC50 came to 2.1 µM.
The same measure for `C/C=C(\C)C(=O)O[C@H]1[C@H](OC(=O)/C(C)=C/C)[C@@H](OC(=O)/C(C)=C/C)[C@@H](O)[C@H](O)[C@@H]1OC(=O)/C(C)=C/C`: 4 µM.

The IC50 is the concentration at which inhibition is half-maximal.
